Source: patent US20260146264A1, “METHODS FOR REPROGRAMMING AND GENE EDITING CELLS” (Factor Bioscience Inc., priority 2023, published 2026)
Entries after “also recorded” stand apart in the source; their conditions may differ.

Experiments:
[1] = tested on: Control iMSCs
Method: The cytotoxicity of small-molecule IDO1 inhibitors was assessed by flow cytometry after a 48 hour incubation with Control iMSCs. Viability is shown relative to PBS controls.

[2] = tested on: pJet promoter; assay: Reactivation of silenced pJet promoter (GFP expression) during iPSC to iMSC differentiation; assay type: cell-based, human; conditions: 10 μM, 24 hours on day 23 of differentiation, JeT-GFP cells
Source text: • 1. Transfect hiPSCs with a chromatin context-sensitive gene editing endonuclease according to some embodiments of the present disclosure, mRNA and single stranded DNA repair templates encoding GFP sequence under JeT (“pJet”) and Ef1a promoters. • 2. Perform gDNA extraction and AAVS1 surveyor PCR to confirm ssDNA repair template integration at AAVS1 locus • 3. Perform single cell sorting to obtain homogeneous cell line started from a single cell • 4. Using Stemdiff™ Mesenchymal Progenitor kit, differentiate iPS cell lines inserted with pJet and Ef1a GFP sequence in their genomes into iMSCs. • 5. Verify robust iMSC differentiation using surface marker expression at the completion of differentiation.
FIG. 16A and FIG. 16B show the tracking of GFP expression under a pJet promoter during iPSC to iMSC differentiation. […] GFP was expressed from day 18 to 30 but was completely silenced on day 33.

[3] = tested on: COL7A1_e73 gene-editing protein pair US22 (US2L/US2R, wild-type FokI domains) (synthetic construct); assay: cell_activity; conditions: T7E1 assay, primary human fibroblasts; 9.4% in iPSCs (p667)
[4] = tested on: COL7A1_e73 gene-editing protein pair USN1 (US2L/US2R D450A) D450A in FokI domain of right protein (D67A of SEQ 80; mutant FokI domain is SEQ 81) (synthetic construct); assay: cell_activity; conditions: T7E1 assay, primary human fibroblasts; nickase pair, 58.7% relative insertion of 300 bp dsDNA donor vs 72.3% for US22
[5] = tested on: COL7A1_e73 gene-editing protein pair USN2 (US2L/US2R D450N) D450N in FokI domain of right protein (D67N of SEQ 80; mutant FokI domain is SEQ 82) (synthetic construct); assay: cell_activity; conditions: T7E1 assay, primary human fibroblasts; 0.4% in iPSCs; nickase pair, 42.9% relative insertion of dsDNA donor in fibroblasts
[6] = tested on: COL7A1_e73 gene-editing protein pair USN3 (US2L/US2R D467A) D467A in FokI domain of right protein (D84A of SEQ 80; mutant FokI domain is SEQ 83) (synthetic construct); assay: cell_activity; conditions: T7E1 assay, primary human fibroblasts; nickase pair

NS(=O)(=O)NCCNc1nonc1C(=NO)Nc1ccc(F)c(Br)c1 [Epacadostat]
cytotoxicity (viability relative to PBS controls) [1]: no significant difference relative to PBS

C[C@@H](NC(=O)c1ccc(F)cc1)c1ccc2c(c1)CCN2C(=O)C1CCOCC1 [IDO1-IN-5]
cytotoxicity (viability relative to PBS controls) [1]: mild cytotoxicity

CC(/C=C/C(=O)NO)=C\[C@@H](C)C(=O)c1ccc(N(C)C)cc1 [Trichostatin A]
GFP expression post TSA treatment [2]: temporary increase in GFP expression
GFP expression post TSA treatment ([2]; listed as TSA): noticeable increase of GFP expression; also recorded: successfully demethylated and reactivated the pJet promoter

COL7A1 exon 73 target site
activity [3]: 61.9 % NHEJ/MMEJ
activity [4]: 4.4 % NHEJ/MMEJ
activity [5]: 3.1 % NHEJ/MMEJ
activity [6]: 11.1 % NHEJ/MMEJ
